This note sets out measurements from patent US12257248B2, “Bronchodilators for treating obstructive lung disease” (University of South Florida, priority 2020, dated 2025).

One experiment has as its system primary HASM cells. Briefly: HASM cell relaxation by magnetic twisting cytometry (MTC). As to conditions: for Relaxation (% basal): primary HASM cells passages 5-7, non-asthmatic donor, MTC, single concentration 500 μM; for rank of HASM cell relaxation response (FIG. 7): 500 μM, added at 60 seconds, 200-400 cells per compound. The class given is cell-based, human. How it is done:
FIG. 7 depicts HASM cell relaxation responses to selected compounds. Compounds were studied at a concentration of 500 μM and were added to the culture media at the 60 second time point (arrow). Results are from measurements of 200-400 cells per compound. *, P<0.01 vs the T5-1 reference response.
To correlate the [Ca^2+]i responses of the compounds to relevant physiologic function, we turned to measurements of single-cell mechanics in HASM cells using magnetic twisting cytometry (MTC) as previously described. Here, cultured primary HASM cells at passages 5-7 derived from a non-asthmatic donor lung were utilized. […] Positive controls (FIG. 6) included the β-agonists albuterol (partial agonist), formoterol (full agonist) and forskolin, which increases cAMP by direct activation of adenylyl cyclase.

Another experiment relates to D9-HASM cells. Briefly: [Ca2+]i stimulation screening assay (Fluo-4) in D9-HASM cells. The class given is cell-based, human. As to conditions: for EC50: Fluo-4, mean±SE from 4-8 experiments, read-out: EC50 ([Ca^2+]i stimulation); for Emax / Rmax (% ionomycin): maximal [Ca2+]i response normalized to ionomycin 2.0 μM; for Emax: read-out: Rmax (% ionomycin). How it is done:
Cultured D9 telomerase reverse transcriptase immortalized HASM (D9-HASM) cells were utilized for the [Ca^2+]i screening assays. Cells were seeded onto 96 well plates and loaded with Fluo-4 direct. The [Ca^2+]i responses to multiple concentrations of potential agonists were determined as a measure of receptor activation. Control cells were exposed to the non-specific ionophore ionomycin at 2.0 μM (a maximal effective concentration, FIG. 4). Results from TAS2R agonist studies were normalized to the ionomycin response in order to compare the maximal responses (Rmax) between agonists. The concentration-response data were fit to a four component logistic regression model (sigmoid curve) using iterative non-linear regression methods to determine the EC50 and Rmax. The structures of the previously identified agonist termed T5-1, and 18 derivatives (denoted as T5-2 through T5-19) are shown in FIG. 2. Representative [Ca^2+]i responses to these compounds are shown in FIG. 4, and mean results from multiple concentration-response experiments are shown in FIG. 3. Table 1 summarizes the results in terms of potency (EC50) and efficacy (Rmax), with statistical comparisons to T5-1.

Like-named read-outs stand apart in the source and are kept apart here.

As to `c1cnc2c(c1)ccc1ncccc12` [T5-3, 1,7-Phenanthroline], the “Relaxation (% basal)” value with primary HASM cells is on record as 34.8 ± 1.36 % basal. Besides, in the experiment on D9-HASM cells (Homo sapiens), the EC50 (commonly the concentration that produces a half-maximal response) is 24.9 ± 4.58 µM and the Emax came out at 121 ± 16.7%.

Take `c1ccc(-c2ccccn2)nc1` [T5-2, 2,2′-Bipyridine]: the “Relaxation (% basal)” value in the experiment with primary HASM cells was −3.2 ± 1.67 % basal. For the same molecule, the Emax with D9-HASM cells (Homo sapiens) was 16.4 ± 4.48%.

For `c1cnc2c(c1)ccc1cccnc12` [T5-1, 1,10-Phenanthroline, reference compound], in the experiment on primary HASM cells, the “Relaxation (% basal)” value is 10.8 ± 2.17 % basal. Besides, in the experiment with D9-HASM cells (Homo sapiens), the EC50 was 29.7 ± 5.57 µM and the Emax was found to be 149 ± 10.2%.

As to `Cc1ccc2ccc3ccc(C)nc3c2n1` [T5-5, 2,9-Dimethyl-1,10-phenanthroline], the “Relaxation (% basal)” value in the experiment with primary HASM cells is 12.0 ± 1.47 % basal. In addition, in the experiment with D9-HASM cells (Homo sapiens), the concentration for a half-maximal effect (EC50) came to 33.3 ± 6.4 µM and the Emax was determined as 143 ± 13.1%.

`O=C1C(=O)c2ccccc2-c2ccccc21` [T5-18, 9,10-Phenanthrenequinone]: in the experiment on primary HASM cells, the “rank of HASM cell relaxation response (FIG. 7)” value (“rank” below) was “then 18 and 11”; the “Relaxation (% basal)” value came out at 20.0 ± 2.00 % basal. Besides, in the experiment on D9-HASM cells (Homo sapiens), the 50% effective concentration (EC50) stood at 5.08 ± 1.37 µM and the Emax was found to be 153 ± 5.2%.

Consider `Cc1ccnc2c1ccc1c(C)ccnc12` [T5-6, 4,7-Dimethyl-1,10-phenanthroline], for which the “Relaxation (% basal)” value in the experiment on primary HASM cells was 5.3 ± 1.95 % basal. Also, in the experiment on D9-HASM cells (Homo sapiens), the EC50 stood at 1.39 ± 0.19 µM and the Emax was found to be 147 ± 16.7%.

On to `Cc1cc2cccnc2c2ncccc12` [T5-12, 5-Methyl-1,10-phenanthroline], for which, in the experiment with D9-HASM cells (Homo sapiens), the EC50 stood at 12.1 ± 1.99 µM and the Emax was 181 ± 24.6%.

With `c1cnc2c(c1)c1nccnc1c1cccnc12` [T5-14, Pyrazino[2,3-f][1,10]phenanthroline], the “Relaxation (% basal)” value in the experiment on primary HASM cells turned out to be 6.1 ± 1.67 % basal. In the experiment with D9-HASM cells (Homo sapiens), the EC50 worked out at 147 ± 2.26 µM and the Emax came out at 34.5 ± 15.1%.

Turning to `c1cnc2ccc3ncccc3c2c1` [T5-4, 4,7-Phenanthroline], in the experiment with primary HASM cells, the “Relaxation (% basal)” value amounted to 15.3 ± 1.48 % basal. In the experiment on D9-HASM cells (Homo sapiens), the Emax worked out at 15.4 ± 3.37%.

In the case of `Cc1c(C)c2cccnc2c2ncccc12` [T5-7, 5,6-Dimethyl-1,10-phenanthroline], the “Relaxation (% basal)” value in the experiment on primary HASM cells was determined as 9.0 ± 2.19 % basal. In addition, in the experiment with D9-HASM cells (Homo sapiens), the concentration for a half-maximal effect (EC50) stood at 2.05 ± 0.2 µM and the Emax is 163 ± 36.4%.

Regarding `C=C(C)c1c(C(=C)C)c2cccnc2c2ncccc12` [T5-17, 5,6-di(prop-1-en-2yl)-1,10-phenanthroline], the “Relaxation (% basal)” value in the experiment on primary HASM cells stood at 13.5 ± 2.59 % basal. In addition, in the experiment with D9-HASM cells (Homo sapiens), the EC50 stood at 25.5 ± 7.06 µM and the Emax stood at 113 ± 19%.

As for `COc1c(OC)c2cccnc2c2ncccc12` [T5-15, 5,6-Dimethoxy-1,10-phenanthroline], in the experiment with primary HASM cells, the “rank” value is recorded as “then 15” and the “Relaxation (% basal)” value is given as 26.7 ± 1.65 % basal. Moreover, in the experiment with D9-HASM cells (Homo sapiens), the 50% effective concentration (EC50) is 7.48 ± 0.78 µM and the Emax was found to be 127 ± 16.1%.

Regarding `CCc1c(CC)c2cccnc2c2ncccc12` [T5-16, 5,6-Diethyl-1,10-phenanthroline], in the experiment on D9-HASM cells (Homo sapiens), the EC50 is 4.05 ± 0.8 µM and the Emax came out at 183 ± 14.7%.

For the molecule `Cc1ccnc(-c2cc(C)ccn2)c1` [T5-19, 4,4′-Dimethyl-2,2′-dipyridyl], in the experiment on D9-HASM cells, the EC50 is 60.6 ± 9.13 µM and the “Rmax (% ionomycin)” value was found to be 58.9 ± 2.95 % ionomycin.

For the molecule `Nc1cc2cccnc2c2ncccc12` [T5-9, 1,10-Phenanthrolin-5-amine], in the experiment on primary HASM cells, the “Relaxation (% basal)” value is 7.2 ± 1.95 % basal. Also, in the experiment with D9-HASM cells (Homo sapiens), the half-maximal effective concentration (EC50) turned out to be 4.6 ± 0.42 µM and the Emax came to 176 ± 14.2%.

Consider `Clc1cc2cccnc2c2ncccc12` [T5-11, 5-Chrolo-1,10-phenanthroline], for which, in the experiment on primary HASM cells, the “rank” value was “then 18 and 11”; the “Relaxation (% basal)” value was 18.0 ± 2.13 % basal. Also, in the experiment with D9-HASM cells, the concentration giving a half-maximal response (EC50) was determined as 11.1 ± 2 µM and the “Rmax (% ionomycin)” value is 183 ± 7.3 % ionomycin.

`O=C1C(=O)c2cccnc2-c2ncccc21` [T5-8, 1,10-Phenanthroline-5,6-dione]: in the experiment with primary HASM cells, the “rank” value is “greatest degree of relaxation” and the “Relaxation (% basal)” value is 50.2 ± 2.79 % basal. In the experiment with D9-HASM cells (Homo sapiens), the EC50 came to 0.12 ± 0.05 µM and the Emax came out at 199 ± 20.2%.

On to `Brc1cc2cccnc2c2ncccc12` [T5-10, 5-Bromo-1,10-phenanthroline], for which, in the experiment with primary HASM cells, the “Relaxation (% basal)” value is reported as 14.4 ± 1.93 % basal. Also, in the experiment on D9-HASM cells (Homo sapiens), the EC50 came out at 4.35 ± 0.71 µM and the Emax amounted to 182 ± 25.7%.

Regarding `O=[N+]([O-])c1cc2cccnc2c2ncccc12` [T5-13, 5-Nitro-1,10-phenanthroline], the “Relaxation (% basal)” value in the experiment on primary HASM cells is listed as 12.8 ± 2.00 % basal. In the experiment on D9-HASM cells (Homo sapiens), the EC50 turned out to be 36 ± 3.85 µM and the Emax worked out at 134 ± 11.9%.
